PubChem BioAssay (NCI)
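Dose response: 5 concentrations. Exposure: 48 h. Format: 96-well plates. Endpoint: linear interpolation; highest concentration if not reached. The concentration for 50% growth inhibition is given as GI50. TGI: total growth inhibition.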 Where a SMILES comes first, the peptide text is derived from it. Bridges are numbered along the chain shown (N, C = ends). [ ]: non-standard residue; d: D form. ξ: configuration not given here. ξThr(3R) = C[C@@H](O)C(N)C(=O)O; S5 = C=CCCC[C@](C)(N)C(=O)O

Experiments:
Experiment in all cases: DTP human tumour cell line panel, 48 h
OVCAR-8 ovarian = test system: OVCAR-8 ovarian
HOP-62 NSCLC = test system: HOP-62 NSCLC
SK-MEL-28 melanoma = test system: SK-MEL-28 melanoma
HS 578T breast = test system: HS 578T breast
DU-145 prostate = test system: DU-145 prostate
OVCAR-5 ovarian = test system: OVCAR-5 ovarian
SN12C renal = test system: SN12C renal
IGROV1 ovarian = test system: IGROV1 ovarian
SK-MEL-2 melanoma = test system: SK-MEL-2 melanoma
NCI-H522 lung = test system: NCI-H522 lung

SMILES	TGI (OVCAR-8 ovarian)	TGI (HOP-62 NSCLC)	TGI (SK-MEL-28 melanoma)	TGI (HS 578T breast)	TGI (DU-145 prostate)	TGI (OVCAR-5 ovarian)	TGI (SN12C renal)	TGI (IGROV1 ovarian)	TGI (SK-MEL-2 melanoma)	TGI (NCI-H522 lung)	GI50 (OVCAR-8 ovarian)	GI50 (NCI-H522 lung)	GI50 (HOP-62 NSCLC)	GI50 (SK-MEL-2 melanoma)	GI50 (SK-MEL-28 melanoma)	GI50 (HS 578T breast)	GI50 (DU-145 prostate)	GI50 (OVCAR-5 ovarian)	GI50 (SN12C renal)	GI50 (IGROV1 ovarian)
COc1cccc2nc3ccccc3nc12	69.1 µM	> 100 µM	> 100 µM	> 100 µM	> 100 µM	> 100 µM	> 100 µM	–	–	–	–	–	–	–	–	–	–	–	–	–
CC(=O)Nc1ccc(/C=C2\N=C(c3ccccc3)OC2=O)cc1	–	> 100 µM	> 100 µM	–	–	> 100 µM	> 100 µM	> 31.6 µM	> 100 µM	–	–	–	–	–	–	–	–	–	–	–
CN(C)C(=O)NC(=S)N(C)C	> 100 µM	1.52 µM	> 100 µM	–	–	> 100 µM	> 100 µM	> 100 µM	> 100 µM	> 100 µM	–	–	–	–	–	–	–	–	–	–
CC(=O)N[C@H](C(=O)N[C@@H](CCCNC(=N)N)C(=O)N[C@@H](CCCCN)C(=O)N[C@@H](CCCNC(=N)N)C(=O)NC(C(=O)N[C@@H](CC(C)C)C(=O)N[C@@H](CCCNC(=N)N)C(=O)N[C@@]1(C)CCC/C=C\CCC[C@@](C)(C(=O)N[C@@H](CCCNC(=N)N)C(=O)N[C@@H](CCC(=O)O)C(=O)N[C@@H](CC(C)C)C(=O)N[C@H](C(=O)N[C@@H](CCC(=O)O)C(N)=O)C(C)C)NC(=O)[C@H](CCC(N)=O)NC(=O)[C@H](CC(C)C)NC(=O)[C@H](CC(C)C)NC1=O)[C@@H](C)O)C(C)C (stereo partly drawn) (Ac-VRKR[ξThr(3R)]LR[S5]LLQ[S5]RELVE-NH2; staple (Z) 8-12)	8.32 µM	11.8 µM	11.3 µM	5.31 µM	9.2 µM	18.1 µM	10.7 µM	–	17.2 µM	16.4 µM	2.14 µM	5.75 µM	3.24 µM	4.73 µM	3.93 µM	1.48 µM	2.68 µM	8.96 µM	3.33 µM	–
O=C1C2c3[nH]c4ccccc4c3C3CCCCCC3C2C(=O)N1c1ccccc1 (stereo unspecified)	34 µM	41.7 µM	97.7 µM	–	–	> 100 µM	> 36.5 µM	72 µM	67.2 µM	> 100 µM	–	–	–	–	–	–	–	–	–	–
CCN(CC)CCN1C(=O)C2C3C(=O)CC(C)(CC3C)C2C1=O (stereo unspecified)	> 100 µM	> 100 µM	–	> 100 µM	> 100 µM	> 100 µM	> 100 µM	> 100 µM	> 100 µM	> 100 µM	> 100 µM	> 100 µM	> 100 µM	> 100 µM	–	> 100 µM	> 100 µM	> 100 µM	> 100 µM	> 100 µM
Cc1ccc(-c2nc3cc(Cl)c(Cl)cc3nc2C#N)cc1	> 100 µM	> 100 µM	> 100 µM	–	> 100 µM	> 100 µM	> 100 µM	> 100 µM	> 100 µM	> 100 µM	> 100 µM	> 100 µM	> 100 µM	> 100 µM	> 100 µM	–	> 100 µM	46.2 µM	> 100 µM	> 100 µM
CCCCCCCCCC(CCCC(O)CC(=O)O)OC1OC(COC2OC(C)C(OC(C)=O)C(O)C2O)C(O)C(O)C1OC1OC(CO)C(O)C(O)C1OC1OC(C)C(OC(=O)CC(C)C)C(O)C1O (stereo unspecified)	> 35 µM	> 35 µM	> 35 µM	> 35 µM	> 35 µM	> 35 µM	> 35 µM	> 35 µM	–	> 35 µM	> 35 µM	> 35 µM	> 35 µM	–	> 35 µM	> 35 µM	> 35 µM	> 35 µM	> 35 µM	> 35 µM
